Experimental findings from ChEMBL document CHEMBL1155489, “Novel 3-O-pegylated carboxylate and 3-O-pegylated carbamate prodrugs of naltrexone for microneedle-enhanced transdermal delivery” (Bioorg Med Chem Lett, 2010) are described below.

By solubility (thermodynamic) is commonly meant the concentration in solution at equilibrium with solid.

Values after ≈ are worked out from the molar mass of the structure shown.

Series [1] can be described thus: Solubility in 0.3 M acetate buffer at pH 5 relative to naltrexone. Format: physicochemical.
The nature of series [2]: Solubility in 0.3 M acetate buffer at pH 5. It counts as physicochemical.

With `COCCOCCOCCNC(=O)Oc1ccc2c3c1O[C@H]1C(=O)CC[C@@]4(O)[C@@H](C2)N(CC2CC2)CC[C@]314`, the Ratio in series [1] was determined as 2.35. Besides, the solubility (thermodynamic) in series [2] stood at 796 mM (≈ 422 mg/mL). Regarding `O=C(NCCOCCOCCO)Oc1ccc2c3c1O[C@H]1C(=O)CC[C@@]4(O)[C@@H](C2)N(CC2CC2)CC[C@]314`, in series [1], the Ratio stood at 3.06. The compound further displayed a solubility (thermodynamic) in series [2] of 1040 mM (≈ 535 mg/mL).

`O=C(CCOCCOCCO)Oc1ccc2c3c1O[C@H]1C(=O)CC[C@@]4(O)[C@@H](C2)N(CC2CC2)CC[C@]314`: in series [1], the Ratio was found to be 1.86. Besides, the solubility (thermodynamic) in series [2] was found to be 629 mM (≈ 315 mg/mL). As for `COCCOCCOCCC(=O)Oc1ccc2c3c1O[C@H]1C(=O)CC[C@@]4(O)[C@@H](C2)N(CC2CC2)CC[C@]314`, the Ratio in series [1] is given as 2.81. The same compound gave a thermodynamic solubility in series [2] of 952 mM (≈ 491 mg/mL).

In series [2], `O=C1CC[C@@]2(O)[C@H]3Cc4ccc(O)c5c4[C@@]2(CCN3CC2CC2)[C@H]1O5` [NALTREXONE] registered a solubility (thermodynamic) of 338 mM (≈ 115 mg/mL).
